# Where a name gives a salt, the structure may show the parent alone.
# Legend:
# [1] = test system: RNA3WJ_0.0.0_5IB_3FAM (3WJ_0.0.0_5IB_3FAM) RNA three way junction; assay: Thermal shift binding assay; settings: for Melt. Temp. with cmpd / Shift melt. Temp.: RNA sequence 3WJ_0.0.0_5IB_FAM; for Melt. Temp. with cmpd: melting temperature in presence of compound; for Shift melt. Temp.: melting temperature with cmpd minus without cmpd
# From the text: (§1) Purpose: Test binding of compounds for RNA three way junction (for example, a construct of 38 nt). Thermal shift assay based on established fluorescence quenching assay utilizing FAM as fluorescence tag and Iowa Black as quencher. Tags were attached at the 3′ and 5′ end, respectively. Stable formation of 3WJ upon compound binding would lead to quenching of the FAM fluorescence due to close proximity of the Iowa Black tag. Thermal unfolding leads to increase of fluorescence emission. Assay readout: FAM (465-510 nm) Thermal Shift.
# (§2) Assay sample buffer used: 10 mM CacoK pH 7.2, 30 mM NaCl. Buffer preparation in Dnase/Rnase Free distilled water (Gibco Life Technologies).
# (§3) Tool compounds provided as dry powder are prepared as 50 mM stock solution in 100% d6-DMSO. Stock solutions of 50 mM concentration in d6-DMSO are stored at RT.
# (§4) Sample plate: Roche, Light Cycler480 Multiwell Plate96, white, REF 04729692001. (Dilution plate: Greiner REF 781101, PS-Microplate, 384 well, clear). Thermal Shift device: Roche, Light Cycler480.
# (§5) Daily fresh (10 ml): 1 ml 100 mM CacoK pH 7.2 and 0.3 ml 1 M NaCl filled up to 10 ml with Dnase/Rnase Free distilled water.
# (§6) Dilute the RNA 1:10 (final 10 μM) in Assay Buffer.
# (§7) Heat up the diluted RNA up to 90° C. for 5 min (sealed Eppendorf Tube).
# (§8) Cool down the RNA probe slowly to RT.
# (§9) Dilute the compounds to 800 μM in DMSO (Assay: 8 μM).
# (§10) 78.4 μL Assay Buffer are pipetted into Greiner REF 781101, PS-Microplate, 384 (each well needed).
# (§11) Add 0.8 μL of the RNA-Solution ([…]).
# (§12) Add 0.8 μL Compound-Solution ([…]).
# (§13) Final concentrations in the sample: 1 μM RNA, 8 μM compound, 1% DMSO
# (§14) Pipet 20 μL Sample Solution into Roche, Light Cycler480 Multiwell Plate96, white, REF 04729692001.
# (§15) When sample transfer is finished, seal the plate with a clear topseal (part of REF 04729692001).
# (§16) Centrifuge the plate with a table-top device to spin down the samples.
# (§17) Measure the 96 plate with the LightCycler480 (Channel: 480/510 nm; Temperature: 41-91° C.).
# (§18) Analyse measurement-data with the MeltingCurveGenotyping Mode.
# (§19) Settings: Acquisition mode: continuous; Ramp rate: 0.1 C.°/sec; Acquisition: 6/C.° Melt Curve Genotyping for All Samples
# (§20) Melting curves analysis show melting temperature (Tm) of ˜51° C. Range of RNA concentrations was tested and assay window was determined (conc. range of 0.5-1 μM yields best results). The choice of buffer also affected the Tm. RNA constructs were tested under different buffer conditions (especially in presence of salt) in the thermal shift assay. […] CacoK with 30 mM salt at 1 μM RNA conc. was used to assess compound effects on 3WJ stability. […] These conditions were used for screening test compounds.
# [2] = test system: RNA3WJ_1.0.0_5IB_3FAM (cis 3WJ with one unpaired nucleotide); assay: Thermal shift binding assay; settings: RNA3WJ_1.0.0_5IB 3FAM; RNA:ligand ratios 1:1, 1:3
# From the text: as §1, §2, §3, §4, §5, §6, §7, §8, §9, §10, §11, §12, §13, §14, §15, §16, §17, §18, §19, §20
# Compounds Ark0000013 and Ark0000014 were also tested in the thermal shift assay against three RNA 3WJ constructs, A) RNA3WJ_1.0.0_5IB_3FAM (cis 3WJ with one unpaired nucleotide); B) Split3WJ.1_up_5IB+Split3WJ.1_down_3FAM (trans 3WJ as 1:1 mix); and C) Split3WJ.2_up_5IB+Split3WJ.2_down_3FAM (trans 3WJ as 1:1 mix).
# RNA3WJ_3.0.0_5IB_3FAM = assay: Thermal shift binding assay; settings: RNA:ligand ratios 1:1, 1:3
# From the text: as §1, §2, §3, §4, §5, §6, §7, §8, §9, §10, §11
# Add 0.8 μL Compound-Solution ([…]). […]
# as §14, §15, §16, §17, §18, §19, §20
# [3] = test system: RNA3WJ_0.0.0_5IB_3FAM (3WJ_0.0.0_5IB_3FAM) RNA three way junction; assay: Thermal shift binding assay; settings: RNA:ligand ratios 1:1, 1:3, raw and normalized data
# [4] = test system: 3WJ_0.0.0_5IB_3FAM construct; assay: Fluorescence quenching binding assay; settings: at conc. >5 μM, FIG. 107
# Procedure: This assay will be used to test binding of compounds for RNA three way junction (such as a 38 nt construct). This is a fluorescence quenching assay utilizing FAM as fluorescence tag and Iowa Black as quencher. Tags are attached at the 3′ and 5′ end, respectively. Stable formation of MW upon compound binding would lead to quenching of the FAM fluorescence due to close proximity of the Iowa Black tag. Assay readout: FAM (485-520 nm) Fluorescence Intensity.
# as §2, §3
# Sample plate: Greiner cat #784076, black, 384 (Dilution plate: Greiner REF 781101, PS-Microplate, 384 well, clear). Fluorescence Intensity device: Envision 1040285
# Daily fresh (10 ml): 1 ml 100 mM CacoK pH 7.2 and 0.3 ml 1 M NaCl filled up to 10 ml with Dnase/Rnase Free distilled water
# as §6
# Heat up the diluted RNA up to 90° C. for 5 min (sealed Eppendorf Tube). […]
# Calibration of the expected fluorescence signal at various RNA concentrations in either CacoK or NaPO4 buffers was performed first. Experiments in buffers containing salt show distinct fluorescence quenching behavior. […]
# [5] = RNA3WJ_0.0.0_5IB_3FAM, 1 μM RNA, 8 μM compound, 1% DMSO, 10 mM CacoK pH 7.2, 30 mM NaCl
Compound,Melt. Temp. with cmpd [1],Shift melt. Temp. [1],"Temp. Shift [° C.] [1, 5]",also measured
C#CCCCC(=O)NC[C@H]1O[C@H](O[C@H]2[C@H](O)[C@@H](O[C@H]3O[C@H](CO)[C@@H](O)[C@H](N)[C@H]3O)[C@H](N)C[C@@H]2N)[C@H](O)[C@@H](O)[C@@H]1O [Ark000008],–,–,–,"Effect on melting temperature (in words) ([1]; 3WJ_0.0.0_5IB_3FAM RNA construct, FIG. 110): very small effect"
CN(CCCN)CCCNC(=O)c1ccccc1 [Ark000039],–,–,–,Effect in the melting curves (in words) [2]: lack of effect; Effect in the melting curves (in words) (RNA3WJ_3.0.0_5IB_3FAM): lack of effect; Effect in the melting curves (in words) [3]: no significant effect
CN(CCOCCOCCN(C)C(=O)[C@@H]1C[C@H](N=[N+]=[N-])CN1C(=O)CCc1ccc(S(=O)(=O)F)cc1)C(=O)CCC12c3cc(NC(=O)CCCCCCCN)ccc3C(c3ccc(NC(=O)CCCCCCCN)cc31)c1ccc(NC(=O)CCCCCCCN)cc12 [ARK000028],82.3 °C,+22.0 °C,–,–
"4-((2S,4S)-4-azido-2-(methyl(12-methyl-13-oxo-15-(2,7,15-tris(8-aminooctanamido)-9,10-[1,2]benzenoanthracen-9(10H)-yl)-3,6,9-trioxa-12-azapentadecyl)carbamoyl)pyrrolidine-1-carbonyl)benzenesulfonyl fluoride [ARK000032]",75.1 °C,+15.0 °C,+15.0 °C,–
"N,N′,N″-(9-(1-((2S,4S)-4-azido-1-(3-(4-(fluorosulfonyl)benzoyl)pyrrolidin-2-yl)-2,11-dimethyl-1,12-dioxo-5,8-dioxa-2,11-diazatetradecan-14-yl)-9,10-dihydro-9,10-[1,2]benzenoanthracene-2,7,15-triyl)tris(azanediyl))tris(8-aminooctanamide) [ARK000031]",84.1 °C,+24.1 °C,+24.1 °C,–
"[N-]=[N+]=NC[C@H]1O[C@H](O[C@@H]2[C@@H](O)[C@H](O[C@H]3O[C@H](CN)[C@@H](O)[C@H](O)[C@H]3O)[C@@H](N)C[C@H]2N)[C@H](O)[C@@H](N)[C@@H]1O [Ark000007, 6″-Azido-kanamycin A hydrochloride salt]",–,–,~5 °C,"Melting temp [° C.] + cmpd [1, 5]: 65.6 °C; Concentration dependent influence on the fluorescence signal (quenching effect) [4]: increase of quenching effect"
CC(C)(C)OC(=O)NCCCC[C@@H](NC(=O)OC(C)(C)C)C(=O)Nc1ccc2c(c1)C1(CCC(=O)NCCOCCOCCN)c3cc(NC(=O)[C@@H](CCCCNC(=O)OC(C)(C)C)NC(=O)OC(C)(C)C)ccc3C2c2ccc(NC(=O)[C@@H](CCCCNC(=O)OC(C)(C)C)NC(=O)OC(C)(C)C)cc21 [ARK000023],60.7 °C,+0.6 °C,–,–
